According to US6897224B2, “Quinoline and isoquinoline derivatives, a process for their production and their use as inflammation inhibitors” (Schering AG, priority 2002, dated 2005):

Columns and labels:
[1] = target: glucocorticoid receptor (GR) (Homo sapiens, UniProt P04150); assay: biochemical
Source text: The binding of the substances to the glucocorticoid receptor (GR) and other steroid hormone receptors (mineral corticoid receptor (MR), progesterone receptor (PR) and androgen receptor (AR)) is examined with the aid of recombinantly produced receptors. Cytosol preparations of Sf9 cells, which had been infected with recombinant baculoviruses that code for the GR, are used for the binding studies.

androgen receptor (AR) = target: T1, androgen receptor (AR) (Homo sapiens, UniProt P10275); assay: Binding to the androgen receptor, recombinantly produced receptor
T1 construct: made in house
T1 sequence (P10275 1-920): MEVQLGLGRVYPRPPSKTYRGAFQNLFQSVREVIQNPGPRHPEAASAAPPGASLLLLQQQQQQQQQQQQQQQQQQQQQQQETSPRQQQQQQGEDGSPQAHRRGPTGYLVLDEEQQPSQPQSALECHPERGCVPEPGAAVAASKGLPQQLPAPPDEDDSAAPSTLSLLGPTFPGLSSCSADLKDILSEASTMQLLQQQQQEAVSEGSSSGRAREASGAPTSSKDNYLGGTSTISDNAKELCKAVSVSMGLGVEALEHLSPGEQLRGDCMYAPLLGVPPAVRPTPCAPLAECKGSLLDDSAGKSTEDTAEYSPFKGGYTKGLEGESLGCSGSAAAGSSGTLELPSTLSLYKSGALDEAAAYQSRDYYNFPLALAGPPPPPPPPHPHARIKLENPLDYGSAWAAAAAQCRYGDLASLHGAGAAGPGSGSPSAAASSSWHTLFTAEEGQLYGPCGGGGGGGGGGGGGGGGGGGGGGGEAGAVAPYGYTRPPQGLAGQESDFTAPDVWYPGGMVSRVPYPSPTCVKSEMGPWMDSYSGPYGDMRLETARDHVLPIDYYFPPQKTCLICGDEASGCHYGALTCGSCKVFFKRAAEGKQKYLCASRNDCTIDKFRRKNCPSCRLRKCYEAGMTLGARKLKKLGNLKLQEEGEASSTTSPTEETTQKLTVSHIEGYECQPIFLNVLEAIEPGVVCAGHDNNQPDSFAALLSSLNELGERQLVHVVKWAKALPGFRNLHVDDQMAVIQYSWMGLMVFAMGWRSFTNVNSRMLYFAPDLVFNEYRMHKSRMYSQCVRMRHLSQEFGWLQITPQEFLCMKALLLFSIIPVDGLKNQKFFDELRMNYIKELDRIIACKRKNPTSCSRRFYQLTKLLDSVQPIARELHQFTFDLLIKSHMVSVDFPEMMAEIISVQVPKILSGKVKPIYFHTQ

[2] = target: T2, progesterone receptor (PR) (Homo sapiens, UniProt P06401); assay: Binding to the progesterone receptor, recombinantly produced receptor
T2 construct: made in house
T2 sequence (P06401 1-933): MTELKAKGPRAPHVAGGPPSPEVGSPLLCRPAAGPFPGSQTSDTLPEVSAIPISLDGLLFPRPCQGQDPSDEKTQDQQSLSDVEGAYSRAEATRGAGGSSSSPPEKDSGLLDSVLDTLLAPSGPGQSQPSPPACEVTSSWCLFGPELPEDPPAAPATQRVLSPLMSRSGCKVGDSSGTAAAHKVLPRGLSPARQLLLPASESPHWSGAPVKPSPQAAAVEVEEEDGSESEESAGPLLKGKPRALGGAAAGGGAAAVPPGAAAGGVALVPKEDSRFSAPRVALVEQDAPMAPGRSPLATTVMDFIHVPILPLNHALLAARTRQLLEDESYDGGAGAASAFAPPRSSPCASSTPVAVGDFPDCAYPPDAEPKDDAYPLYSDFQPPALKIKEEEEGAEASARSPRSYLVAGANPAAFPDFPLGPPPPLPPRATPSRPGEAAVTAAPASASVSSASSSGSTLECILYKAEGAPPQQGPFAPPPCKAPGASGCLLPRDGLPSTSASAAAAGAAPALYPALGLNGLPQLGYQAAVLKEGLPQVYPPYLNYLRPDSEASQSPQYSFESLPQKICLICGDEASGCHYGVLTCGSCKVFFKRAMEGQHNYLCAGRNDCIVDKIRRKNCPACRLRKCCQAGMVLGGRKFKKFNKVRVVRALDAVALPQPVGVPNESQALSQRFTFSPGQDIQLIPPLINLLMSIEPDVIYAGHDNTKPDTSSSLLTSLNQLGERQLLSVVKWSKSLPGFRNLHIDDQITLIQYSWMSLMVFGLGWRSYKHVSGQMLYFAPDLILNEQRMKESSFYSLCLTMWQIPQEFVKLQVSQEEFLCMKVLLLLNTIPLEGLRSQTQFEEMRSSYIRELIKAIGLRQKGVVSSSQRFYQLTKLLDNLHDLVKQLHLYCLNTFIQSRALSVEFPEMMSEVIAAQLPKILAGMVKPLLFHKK

[3] = target: T3, mineral corticoid receptor (MR) (Homo sapiens, UniProt P08235); assay: Binding to the mineral corticoid receptor, recombinantly produced receptor
T3 construct: made in house
T3 sequence (P08235 1-984): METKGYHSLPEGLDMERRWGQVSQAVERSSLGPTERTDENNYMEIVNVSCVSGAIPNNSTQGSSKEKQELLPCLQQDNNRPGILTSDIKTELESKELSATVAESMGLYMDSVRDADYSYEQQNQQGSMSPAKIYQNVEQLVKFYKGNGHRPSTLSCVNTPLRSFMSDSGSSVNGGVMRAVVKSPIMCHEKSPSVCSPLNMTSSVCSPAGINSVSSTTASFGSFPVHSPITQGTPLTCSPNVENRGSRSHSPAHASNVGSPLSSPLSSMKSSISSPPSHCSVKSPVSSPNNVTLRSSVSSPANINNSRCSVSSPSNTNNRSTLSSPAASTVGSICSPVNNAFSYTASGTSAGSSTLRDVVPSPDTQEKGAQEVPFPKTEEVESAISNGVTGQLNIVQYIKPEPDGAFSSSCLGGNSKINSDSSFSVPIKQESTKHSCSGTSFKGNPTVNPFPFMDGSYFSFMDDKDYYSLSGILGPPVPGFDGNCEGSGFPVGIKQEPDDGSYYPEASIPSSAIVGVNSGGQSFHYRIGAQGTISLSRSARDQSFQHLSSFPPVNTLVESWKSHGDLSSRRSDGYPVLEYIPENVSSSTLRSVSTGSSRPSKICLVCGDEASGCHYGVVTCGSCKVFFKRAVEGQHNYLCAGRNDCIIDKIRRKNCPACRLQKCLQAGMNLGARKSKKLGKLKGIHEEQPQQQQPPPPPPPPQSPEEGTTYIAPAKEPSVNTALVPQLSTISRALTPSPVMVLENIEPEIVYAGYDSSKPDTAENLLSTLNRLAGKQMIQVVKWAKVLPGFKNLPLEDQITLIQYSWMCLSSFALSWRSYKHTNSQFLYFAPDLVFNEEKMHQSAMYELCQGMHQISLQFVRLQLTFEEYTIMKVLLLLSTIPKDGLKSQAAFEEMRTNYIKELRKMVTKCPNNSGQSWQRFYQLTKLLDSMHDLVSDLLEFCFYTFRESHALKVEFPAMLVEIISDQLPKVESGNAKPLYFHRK

Sequence of glucocorticoid receptor (GR) (P04150 whole entry, species assumed): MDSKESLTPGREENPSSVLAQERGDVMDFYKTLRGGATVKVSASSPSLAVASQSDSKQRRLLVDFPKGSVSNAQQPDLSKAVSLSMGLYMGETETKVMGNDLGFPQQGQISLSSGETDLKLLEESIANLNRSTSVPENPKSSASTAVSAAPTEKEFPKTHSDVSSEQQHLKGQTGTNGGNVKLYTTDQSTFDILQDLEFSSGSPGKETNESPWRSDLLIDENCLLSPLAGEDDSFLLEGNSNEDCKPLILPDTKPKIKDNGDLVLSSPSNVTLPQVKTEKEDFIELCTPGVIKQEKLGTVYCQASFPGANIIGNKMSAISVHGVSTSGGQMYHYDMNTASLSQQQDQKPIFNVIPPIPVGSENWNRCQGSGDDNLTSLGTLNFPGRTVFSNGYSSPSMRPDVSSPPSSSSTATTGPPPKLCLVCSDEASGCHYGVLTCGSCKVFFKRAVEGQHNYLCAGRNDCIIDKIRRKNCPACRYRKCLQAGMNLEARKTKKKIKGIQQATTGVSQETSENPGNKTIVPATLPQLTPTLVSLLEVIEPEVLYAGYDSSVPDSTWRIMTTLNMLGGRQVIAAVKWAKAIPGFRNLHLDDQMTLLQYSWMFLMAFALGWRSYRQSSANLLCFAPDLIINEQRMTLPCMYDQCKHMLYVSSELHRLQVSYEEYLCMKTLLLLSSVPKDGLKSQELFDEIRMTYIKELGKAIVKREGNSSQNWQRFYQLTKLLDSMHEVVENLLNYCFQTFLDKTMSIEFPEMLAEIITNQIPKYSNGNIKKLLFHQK

CC(C)(CC(O)(CNc1cccc2ncccc12)C(F)(F)F)c1cc(F)ccc1O (stereo not shown) [Example 4]
IC50 [1]: 0.6 to 1.3 nM
IC50 (androgen receptor (AR)): > 1000 nM
IC50 [2]: > 1000 nM
IC50 [3]: > 1000 nM
